Results as given in US20100041613A1, “NOVEL ANTIBIOTIC COMPOSITIONS” (priority 2006, published 2010).
≈ marks a conversion by molar mass, not a printed value.

How the values were obtained:
[1] = system: methicillin resistant Staphylococcus aureus (MRSA) ATCC#33591; experiment: microbe, parasite or virus in culture; assay type: cell-based
Method: (§1) Antibiotic compositions of the invention were tested for antimicrobial activity against methicillin resistant Staphylococcus aureus (MRSA) ATCC#33591 and vancomycin resistant Enterococcus faecalis (VRE) ATCC#51575. Pathogen cultures were grown in tryptic soya broth (TSB) with 5 g/L NaCl (TSB+) overnight (˜18 hrs) at 37° C. The cultures were removed from the incubator and refrigerated at least 3 hours to stop further culture growth. Determined aliquot ratios of culture to broth to obtain approximately 2.5×10^5 CFU/ml., for which accurate counts were measured by serial dilution onto Tryptic Soy Agar with 5 g/L NaCl (TSA+) plates. Two fold dilution series' of […] were prepared for MRSA and VRE, respectively. All components except thiazolyl blue tetrazolium bromide (MTT) were added to the wells prior to an initial overnight incubation at 37° C. MTT was added to each well, 29 μl or […], for MRSA or VRE plates, respectively, followed by 1 hour incubation at 37° C. Vancomycin and/or Zyvoxam were included as reference compounds with vancomycin prepared in the same way as the test compounds. Zyvoxam was supplied as a 2 mg/ml solution. Minimum inhibitory concentration (MIC) endpoints were read as the lowest concentration showing no visible growth.

[2] = system: vancomycin resistant Enterococcus faecalis (VRE) ATCC#51575; experiment: organism not typed; assay type: cell-based
Method: as §1

[3] = MRSA, lowest concentration showing no visible growth, overnight incubation at 37° C.
[4] = VRE, lowest concentration showing no visible growth, overnight incubation at 37° C.

Compound: Nisin[1-12] polypeptide fragment
- highest concentration at which MRSA was not inhibited ([1]; MRSA, did not inhibit at as high as the stated concentration): > 10 µg/mL
- highest concentration at which VRE was not inhibited ([2]; VRE, did not inhibit at as high as the stated concentration): > 40 µg/mL

Compound: CN[C@H](CC(C)C)C(=O)N[C@H]1C(=O)N[C@@H](CC(N)=O)C(=O)N[C@H]2C(=O)N[C@H]3C(=O)N[C@H](C(=O)N[C@H](C(=O)O)c4cc(O)cc(O)c4-c4cc3ccc4O)[C@H](O)c3ccc(c(Cl)c3)Oc3cc2cc(c3O[C@@H]2O[C@H](CO)[C@@H](O)[C@H](O)[C@H]2O[C@H]2C[C@](C)(N)[C@H](O)[C@H](C)O2)Oc2ccc(cc2Cl)[C@H]1O [vancomycin]
- MIC ([1]; Staphylococcus aureus, read-out: minimum inhibitory concentration against MRSA): 1.2 µg/mL (≈ 0.828 µM)
- MIC ([2]; read-out: minimum inhibitory concentration against VRE): 500 µg/mL (≈ 345 µM)

Compound: CC(=O)NC[C@H]1CN(c2ccc(N3CCOCC3)c(F)c2)C(=O)O1 [zyvoxam]
- minimum inhibitory concentration against MRSA [1, 3]: 0.3 µg/mL (≈ 0.889 µM)
- minimum inhibitory concentration against VRE [2, 4]: 1.2 µg/mL (≈ 3.56 µM)

Compound: nisin
- minimum inhibitory concentration against MRSA [1, 3]: 0.3 to 0.6 µg/mL
- minimum inhibitory concentration against VRE [2, 4]: 5 to 10 µg/mL

Compound: C=C1NC(=O)[C@H]([C@@H](C)CC)NC(=O)[C@H](NC(=O)C(=CC)NC(=O)[C@@H](N)[C@@H](C)CC)CSC[C@@H](C(=O)N[C@H]2C(=O)N3CCC[C@H]3C(=O)NCC(=O)N[C@H](C(=O)N[C@@H](CCCCN)C(=O)NCCCCCCNC(=O)[C@H]3NC(=O)[C@H]4NC(=O)[C@H](NC(=O)[C@@H]5NC(=O)[C@H](CC(N)=O)NC(=O)[C@H](NC(=O)[C@@H](CC(C)C)NC)[C@H](O)c6ccc(c(Cl)c6)Oc6cc5cc(c6O[C@@H]5O[C@H](CO)[C@@H](O)[C@H](O)[C@H]5O[C@H]5C[C@](C)(N)[C@H](O)[C@H](C)O5)Oc5ccc(cc5Cl)[C@H]4O)c4ccc(O)c(c4)-c4c(O)cc(O)cc43)CSC2C)NC(=O)[C@H](CC(C)C)NC1=O (stereo partly shown) [Example 2, nisin(1-12)-1,6-diaminohexane-vancomycin]
- minimum inhibitory concentration against MRSA ([1]; methicillin resistant ATCC#33591, 18 h): 0.04 µg/mL (≈ 0.0149 µM)
- minimum inhibitory concentration against VRE ([2]; vancomycin resistant (VRE) ATCC#51575, 18 h): 20 µg/mL (≈ 7.46 µM)
